The subject of assay [1] is HTT mRNA. As to the kind of experiment: Splicing RT-qPCR assay, HTT canonical (CJ) and alternative (AJ) junction mRNA. Format: cell-based. The conditions noted are these: Homo sapiens, A673 or K562 cells, 24 hours; for IC50: decrease in canonical junction mRNA; for AC50: increase in alternative junction mRNA. The method, boiled down:
(§1)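 Housekeeping-normalized RT-qPCR of canonical and alternative junctions in lysates of A673 or K562 cells exposed 24 h to compound (11 points, 3-fold steps, max 10 uM).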
In general terms: In qPCR the cycle at which signal appears reflects the starting amount.

Assay [2] relates to MYB mRNA. As to the kind of experiment: Splicing RT-qPCR assay, MYB canonical (CJ) and alternative (AJ) junction mRNA. Type of assay: cell-based. The conditions noted are these: Homo sapiens, A673 or K562 cells, 24 hours; for IC50: decrease in canonical junction mRNA; for AC50: increase in alternative junction mRNA. A digest of the protocol: as §1
The subject of assay [3] is HTT mRNA. Description: Gene panel canonical junction qPCR assay, HTT CJ mRNA decrease. Type of assay: cell-based, human. The conditions noted are these: Homo sapiens, canonical junction qPCR, read-out: HTT IC50 (decrease in CJ mRNA levels). The method, boiled down: (§2)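 A673 or K562 cells were treated with compound, and lysates underwent cDNA synthesis and qPCR with a CY5 5′-nuclease probe or primer spanning the canonical exon junction. ΔCt versus GAPDH, GUSB or PPIA was normalized to DMSO (2^(−ΔΔCt)), converted to percentage response and fitted four-parameter logistic for IC50.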

Assay [4] concerns Target C mRNA. Description: Gene panel canonical junction qPCR assay, Target C CJ mRNA decrease. Type of assay: cell-based. The conditions noted are these: Homo sapiens, canonical junction qPCR, read-out: Target C IC50 (decrease in CJ mRNA levels). The method, boiled down:
as §2

A word on the IC50: it is the point on the concentration scale where inhibition reaches its midpoint. A word on the AC50: it is the concentration giving half of the maximal activity seen. Regarding `Cc1ccc2c(N3C[C@@H](C)N[C@@H](C)C3)ccc(C(=O)Nc3cc(F)c4nc(C)cn4c3)c2n1` [Compound 214, 5-[(3R,5S)-3,5-dimethylpiperazin-1-yl]-N-{8-fluoro-2-methylimidazo[1,2-a]pyridin-6-yl}-2-methylquinoline-8-carboxamide], the IC50 in assay [1] was 100 to 1000 nM; in assay [2], less than 100 nM; in assay [3], 100 to 1000 nM; in assay [4] it was 1000 to 10000 nM. The results for the concentration at half-maximal activity (AC50) in assay [1] and in assay [2] were 1000 to 10000 nM and 100 to 1000 nM, respectively.
With `Cc1ccc2c(N3CCC(N(C)C)CC3)ccc(C(=O)Nc3cc(F)c4nc(C)cn4c3)c2n1` [Compound 215, 5-[4-(dimethylamino)piperidin-1-yl]-N-{8-fluoro-2-methylimidazo[1,2-a]pyridin-6-yl}-2-methylquinoline-8-carboxamide], the IC50 in assay [1] is 100 to 1000 nM; in assay [2], 100 to 1000 nM; in assay [3], 100 to 1000 nM; in assay [4] it was 1000 to 10000 nM. Also, the half-maximal activity concentration (AC50) in assay [1] fell in the range of 1000 to 10000 nM; in assay [2], 100 to 1000 nM.
Turning to `Cc1cnc2c(N3C[C@@H](C)N[C@@H](C)C3)ccc(C(=O)Nc3cc(F)c4nc(C)cn4c3)c2n1` [Compound 216, 8-((3R,5S)-3,5-dimethylpiperazin-1-yl)-N-{8-fluoro-2-methylimidazo[1,2-a]pyridin-6-yl}-3-methylquinoxaline-5-carboxamide], the IC50 in assay [1] is 1000 to 10000 nM; in assay [2] it was 100 to 1000 nM; in assay [3] it was 1000 to 10000 nM; in assay [4] it was more than 10000 nM. For the same compound, the AC50 in assay [1] is more than 10000 nM; in assay [2], less than 100 nM.
In the case of `Cc1cn2cc(NC(=O)c3ccc(N4CCNC5(CC5)C4)c4nccnc34)cc(F)c2n1` [Compound 218, 8-{4,7-diazaspiro[2.5]octan-7-yl}-N-{8-fluoro-2-methylimidazo[1,2-a]pyridin-6-yl}quinoxaline-5-carboxamide], the IC50 in assay [1] was more than 10000 nM; in assay [2] it was less than 100 nM; in assay [3], more than 10000 nM; in assay [4], more than 10000 nM. Also, the AC50 in assay [1] is 1000 to 10000 nM; in assay [2], less than 100 nM.
With `Cc1cn2cc(NC(=O)c3ccc(N4CC(C)(C)NC(C)(C)C4)c4nccnc34)cc(F)c2n1` [Compound 219, N-{8-fluoro-2-methylimidazo[1,2-a]pyridin-6-yl}-8-(3,3,5,5-tetramethylpiperazin-1-yl)quinoxaline-5-carboxamide], the IC50 was 1000 to 10000 nM in assay [1], less than 100 nM in assay [2], 1000 to 10000 nM in assay [3] and 1000 to 10000 nM in assay [4]. The values for the AC50 in assay [1] and in assay [2] were 1000 to 10000 nM and less than 100 nM, respectively.
For the compound `Cc1cn2cc(NC(=O)c3ccc(N4CCNC(C)(C)C4)c4nccnc34)cc(F)c2n1` [Compound 220, 8-(3,3-dimethylpiperazin-1-yl)-N-{8-fluoro-2-methylimidazo[1,2-a]pyridin-6-yl}quinoxaline-5-carboxamide], the IC50 was 1000 to 10000 nM in assay [1], less than 100 nM in assay [2], 1000 to 10000 nM in assay [3] and 1000 to 10000 nM in assay [4]. In addition, the AC50 in assay [1] is 1000 to 10000 nM; in assay [2], less than 100 nM.
For `CCNC1CCN(c2ccc(C(=O)Nc3cc(F)c4nc(C)sc4c3)c3nnccc23)CC1` [Compound 221, 5-[4-(ethylamino)piperidin-1-yl]-N-(4-fluoro-2-methyl-1,3-benzothiazol-6-yl)cinnoline-8-carboxamide], the IC50 in assay [1], in assay [2], in assay [3] and in assay [4] was 1000 to 10000 nM each time. For the same compound, the AC50 in assay [1] and in assay [2] was 1000 to 10000 nM in each case.
On to `COc1cnc2c(C(=O)Nc3cc(F)c4nc(C)cn4c3)ccc(N3C[C@@H](C)N[C@@H](C)C3)c2n1` [Compound 223], for which the IC50 was 100 to 1000 nM in assay [1], less than 100 nM in assay [2], 100 to 1000 nM in assay [3] and 100 to 1000 nM in assay [4]. Further, the results for the half-maximal activity concentration (AC50) in assay [1] and in assay [2] were 100 to 1000 nM and less than 100 nM, respectively.
With `COc1cnc2c(C(=O)Nc3cc(F)c4nc(C)cn4c3)ccc(N3CCNCC3)c2n1` [Compound 225, N-{8-fluoro-2-methylimidazo[1,2-a]pyridin-6-yl}-2-methoxy-8-(piperazin-1-yl)quinoxaline-5-carboxamide], the IC50 in assay [1] is more than 10000 nM; in assay [2], less than 100 nM; in assay [3] it was more than 10000 nM; in assay [4], more than 10000 nM. In addition, the AC50 in assay [1] was more than 10000 nM; in assay [2], 100 to 1000 nM.
As to `Cc1cn2cc(NC(=O)c3ccc(N4CCN(CCF)C5(CC5)C4)c4nccnc34)cc(F)c2n1` [Compound 370], the IC50 was more than 10000 nM in assay [1], 1000 to 10000 nM in assay [2], more than 10000 nM in assay [3] and more than 10000 nM in assay [4]. For the same compound, the AC50 in assay [1] and in assay [2] was more than 10000 nM in each case.
On to `Cc1cn2cc(NC(=O)c3ccc(C4CCNCC4)c4nccnc34)cc(F)c2n1` [Compound 371], for which the IC50 in assay [1] was in the range of 100 to 1000 nM; in assay [2] it was 100 to 1000 nM; in assay [3], 100 to 1000 nM; in assay [4], 1000 to 10000 nM. Further, the AC50 in assay [1] is 100 to 1000 nM; in assay [2] it was less than 100 nM.
For the compound `Cc1cn2cc(NC(=O)c3ccc(N4CCNC5(COC5)C4)c4nccnc34)cc(F)c2n1` [Compound 372], the IC50 in assay [1] is more than 10000 nM; in assay [2], 1000 to 10000 nM; in assay [3] it was more than 10000 nM; in assay [4] it was more than 10000 nM. Also, the concentration at half-maximal activity (AC50) in assay [1] was more than 10000 nM; in assay [2], 1000 to 10000 nM.
For `Cc1cn2cc(NC(=O)c3ccc(N4CCNC5(CCOC5)C4)c4nccnc34)cc(F)c2n1` (stereo not drawn) [Compound 373], the IC50 was more than 10000 nM in assay [1], 100 to 1000 nM in assay [2], more than 10000 nM in assay [3] and more than 10000 nM in assay [4]. Moreover, the AC50 in assay [1] is more than 10000 nM; in assay [2], 1000 to 10000 nM.
As for `Cc1cn2cc(NC(=O)c3ccc(N4CCNC5(CCOCC5)C4)c4nccnc34)cc(F)c2n1` [Compound 374], the IC50 is 1000 to 10000 nM in assay [1], 100 to 1000 nM in assay [2], 1000 to 10000 nM in assay [3] and 1000 to 10000 nM in assay [4]. In addition, the AC50 is 1000 to 10000 nM in assay [1] and 100 to 1000 nM in assay [2].
As for `Cc1cn2cc(NC(=O)c3ccc(C4CCNC5(CC5)C4)c4nccnc34)cc(F)c2n1` (stereo not drawn) [Compound 375], the half-inhibitory concentration (IC50) in assay [1] was 1000 to 10000 nM; in assay [2], 100 to 1000 nM; in assay [3] it was 1000 to 10000 nM; in assay [4], 1000 to 10000 nM. Moreover, the AC50 in assay [1] fell in the range of 1000 to 10000 nM; in assay [2], 100 to 1000 nM.
`Cc1cn2cc(NC(=O)c3ccc(N4C[C@@H](C)NC5(CC5)C4)c4nccnc34)cc(F)c2n1` [Compound 376]: the IC50 in assay [1] is more than 10000 nM; in assay [2], 100 to 1000 nM; in assay [3], more than 10000 nM; in assay [4] it was more than 10000 nM. Further, the AC50 in assay [1] was more than 10000 nM; in assay [2] it was 100 to 1000 nM.
`Cc1cn2cc(NC(=O)c3ccc(N4C[C@H](C)NC5(CC5)C4)c4nccnc34)cc(F)c2n1` [Compound 377]: the IC50 in assay [1] was 1000 to 10000 nM; in assay [2], less than 100 nM; in assay [3] it was 1000 to 10000 nM; in assay [4], more than 10000 nM. In addition, the AC50 in assay [1] was 1000 to 10000 nM; in assay [2], less than 100 nM.
With `COc1ncc2c(N3C[C@@H](C)N[C@@H](C)C3)ccc(C(=O)Nc3cn4cc(C)nc4c(OC)n3)c2n1` [Compound 378], the IC50 in assay [1] is 100 to 1000 nM; in assay [2] it was less than 100 nM; in assay [3], 100 to 1000 nM; in assay [4], 100 to 1000 nM. For the same compound, the AC50 is 100 to 1000 nM in assay [1] and less than 100 nM in assay [2].
